Assay results taken from patent US20090246152A1, “NARACTIN COMPOSITIONS FOR THE INHIBITION OF REACTIVE OXYGEN SPECIES” (Nu Skin International, Inc., priority 2008, published 2009).

How the values were obtained:
arNOX [1] = experiment: arNOX inhibition, superoxide-dependent reduction of ferric cytochrome c with serum or buffy coats (Table 1); type: biochemical; conditions: 25 μg/ml
Method: Superoxide Production By Buffy Coats: Buffy coats, a mixture of lymphocytes and platelets. Such buffy coats are commercially available from, for example, Rockland ImmunoChemicals (Gilbertsville, Pa.). The blood samples were maintained at 4° C. prior to collection and assay. Ca. 10^7 cells were added to each assay. Cell numbers were determined using a hemocytometer.
Reduction of ferric cytochrome c by superoxide was employed as a standard measure of superoxide formation (Mayo, L. A. and Cumutte, J. (1990) Meth. Enzyme. 186, 567-575. 7. Butler, J, Koppenol, W. H. and Margollash, E. (1982) J. Biol. Chem. 257, 10747). This is a widely accepted method when coupled to superoxide dismutase inhibition for the measurement of superoxide generation. The assay consists of 150 μl serum or 40 μl buffy coats in PBSG buffer (8.06 g NaCl, 0.2 g KCl, 0.18 g Na2HPO4, 0.26 g KH2PO4, 0.13 g CaCl2, 0.1 g MgCl2 1.35 g glucose dissolved in 1000 ml deionized water, adjusted to pH 7.4, filtered and stored at 4° C.) Rates were determined using an SLM Aminco DW-2000 spectrophotometer (Milton Roy, Rochester, N.Y., USA) in the dual wave length mode of operation with continuous measurements over 1 min every 1.5 min. After 45 min, test compounds were added and the reaction was continued for 45 min. After 45 min. a millimolar extinction coefficient of […] was used for reduced ferricytochrome c. Extracts were made of the compounds in water unless otherwise indicated.

arNOX [2] = experiment: arNOX activity of saliva (person), ferricytochrome c reduction; type: biochemical, human; conditions: for inhibition of arNOX activity of saliva: 1 mg/ml, saliva from person; for augmentation of low activity N. tazetta powder: FIGS. 1a and 1b; for arNOX inhibition (result in words): substance or extract alone
Method: Of the mixture, 60 μl was added to at total of three ml of assay mixture containing saliva as the arNOX activity source.
The assay consists of 150 μl serum or 40 μl buffy coats in PBSG buffer (8.06 g NaCl, 0.2 g KCl, 0.18 g Na2HPO4, 0.26 g KH2PO4, 0.13 g CaCl2, 0.1 g MgCl2 1.35 g glucose dissolved in 1000 ml deionized water, adjusted to pH 7.4, filtered and stored at 4° C.) Rates were determined using an SLM Aminco DW-2000 spectrophotometer (Milton Roy, Rochester, N.Y., USA) in the dual wave length mode of operation with continuous measurements over 1 min every 1.5 min. After 45 min, test compounds were added and the reaction was continued for 45 min. After 45 min. a millimolar extinction coefficient of 19.1 cm^−1 was used for reduced ferricytochrome c. Extracts were made of the compounds in water unless otherwise indicated.

## CC1=C(/C=C/C(C)=C/C=C/C(C)=C/C=C/C=C(C)/C=C/C=C(C)/C=C/C2=C(C)C(=O)[C@@H](O)CC2(C)C)C(C)(C)C[C@H](O)C1=O [Natural astaxanthin, astaxanthin]
arNOX [1]; Ethanol
  ArNOX ACTIVITY % OF NO ADDITION: 62%

## O=C(NO)c1ccccc1O [SHAM, salicyl hydroxamate]
arNOX [2]
  inhibition of arNOX activity of saliva: greater than 90%
  augmentation of low activity N. tazetta powder: notably decreased arNOX activity
arNOX [2]; saliva of person, FIG. 1a
  arNOX activity after addition to N. tazetta powder extract: nearly complete inhibition
arNOX [2]; saliva, FIG. 7
  concentration at which inhibition of arNOX activity is largely complete: 11 mg/mL

## O=C(O)c1ccccc1O [Salicylic acid, salicylic acid]
arNOX [2]
  inhibition of arNOX activity of saliva: about 50%
  arNOX inhibition (result in words): found to inhibit arNOX activity

## CC(=O)Oc1ccccc1C(=O)O [aspirin, reference compound]
arNOX [2]
  arNOX inhibition (result in words): did not inhibit arNOX activity

## OCc1ccccc1O[C@@H]1O[C@H](CO)[C@@H](O)[C@H](O)[C@H]1O [salicin]
arNOX [2]; 1 mg/ml salicin, FIGS. 10a, 10b
  augmentation of arNOX inhibition of mixtures of Schizandra chinensis powder and N. tazetta powder/extract: active in augmenting the arNOX inhibition
arNOX [2]; FIG. 9
  active concentration relative to SHAM (Naractin 1) or salicylic acid (Naractin 2): active at a ten-fold lower concentration
arNOX [2]
  augmentation of low activity N. tazetta powder: notably decreased arNOX activity
  arNOX inhibition (result in words): active as a single agent
arNOX [2]; saliva, FIG. 9
  concentration at which maximum inhibition of arNOX activity is achieved: 1 mg/mL

## CC1=C(/C=C/C(C)=C/C=C/C(C)=C/C=C/C=C(C)/C=C/C=C(C)/C=C/C2=C(C)CCCC2(C)C)C(C)(C)CCC1 [β-Carotene]
arNOX [1]; Ethanol
  ArNOX ACTIVITY % OF NO ADDITION: 68%
arNOX [1]; Water
  ArNOX ACTIVITY % OF NO ADDITION: 28%
